Assay results taken from patent US11167015B2, “Arginine and its use as a T cell modulator” (INSTITUTE FOR RESEARCH IN BIOMEDICINE, priority 2016, dated 2021).

Key:
T cell proteome = assay: Limited proteolysis and mass spectrometry (structural changes); format: binding, human
human naïve CD4+ T cells = assay: proteome analysis of T cells activated in L-arginine-supplemented medium; format: cell-based
Procedure: Samples were processed as described by (Hornburg et al., 2014). In brief, cell pellets were washed with PBS and lysed in 4% SDS, 10 mM HEPES (pH 8), 10 mM DTT. Cell pellets were heat-treated at 95° C. for 10 min and sonicated at 4° C. for 15 min (level 5, Bioruptor, Diagenode). Alkylation was performed in the dark for 30 min by adding 55 mM iodoacetamide (IAA). Proteins were precipitated overnight with acetone at −20° C. and resuspended the next day in 8 M Urea, 10 mM Hepes (pH 8). A two-step proteolytic digestion was performed. First, samples were digested at room temperature (RT) with LysC (1:50, w/w) for 3 h. Then, they were diluted 1:5 with 50 mM ammoniumbicarbonate (pH 8) and digested with trypsin (1:50, w/w) at RT overnight. The resulting peptide mixtures were acidified and loaded on C18 StageTips (Rappsilber et al., 2007). […]
Peptides were separated on an EASY-nLC 1000 HPLC system (Thermo Fisher Scientific, Odense, Denmark) coupled online to a Q Exactive mass spectrometer via a nanoelectrospray source (Thermo Fisher Scientific) (Michalski et al., 2011). […] Operational parameters were real-time monitored by the SprayQC software (Scheltema and Mann, 2012). […]
MaxQuant software (version 1.3.10.18) was used to analyze MS raw files (Cox and Mann, 2008). […] Nonlinear retention time alignment of all measured samples was performed in MaxQuant. […]

activated (96 h) T cells = assay: Measurements of oxygen consumption rate (Seahorse); format: cell-based, human; settings: medium supplemented with 3 mM L-arginine, 96 h activated
Procedure: Measurements were performed using a Seahorse XF-24 extracellular flux analyzer (Seahorse Bioscience). Naïve CD4^+ T cells were sorted and activated with plate-bound CD3 and CD28 antibodies in complete medium or medium supplemented with 3 mM L-arginine. Four days later (in the morning), cells were pooled, carefully count and plated (7×10^5 cells/well) in serum-free unbuffered RPMI-1640 medium (Sigma) onto Seahorse cell plates coated with Cell-Tak (BD Bioscience). The serum-free unbuffered medium was not supplemented with L-arginine. Oligomycin (1.4 μM, Sigma), Carbonyl cyanide-4-(trifluoromethoxy)phenylhydrazone (FCCP, 0.6 μM, Sigma) and antimycin (1.4 μM, Sigma) were injected.

## N=C(N)NCCC[C@H](N)C(=O)O [L-arginine]
T cell proteome; 1 mM L-arginine
  protein domains affected by structural changes: affect the PHD domain of BAZ1B and the AT-hook DNA-binding domain of PSIP1
T cell proteome; 1 mM, not affected by D-arginine or L-ornithine, six donors
  number of proteins (out of 5,856 identified) with structural change exclusively in response to L-arginine: 20
Human naïve CD4+ T cells; L-Arg-medium vs normal medium
  Sirtuin-1 copy numbers: up-regulates
Human naïve CD4+ T cells; L-arginine-supplemented medium
  number of proteins with significantly different expression (out of 7,243): 202
Activated (96 h) T cells
  mitochondrial spare respiratory capacity (SRC): augmented
  oxygen consumption increase: 1.7 fold
